Measured values reported in US8293979B2, “Weed controller metabolism proteins, genes, thereof and use of the same” (Sumitomo Chemical Company, Limited, priority 2001, dated 2012).

Key:
[1] = system: present invention protein (A16); experiment: Metabolism of compounds by the present invention protein (A16), reaction solution, HPLC; type: in vitro ADME, Streptomyces ornatus IFO 13069t; details: 12.5 ppm of compound, components A, B, C, 20 μl supernatant fraction of Example 49(2), 30° C. for 10 minutes
Protocol: There was prepared 100 μl of a reaction solution of 50 mM potassium phosphate buffer (pH7.0) containing 12.5 ppm of compound (XII), 3 mM of β-NADPH (hereinafter, referred to as “component A”) (Oriental Yeast Company), 1 mg/ml of a ferredoxin derived from spinach (hereinafter referred to as “component B”) (Sigma Company), 0.15 U/ml of ferredoxin reductase (hereinafter, referred to as “component C”) (Sigma Company) and 20 μl of the supernatant fraction recovered in Example 49(2). The reaction solution was maintained at 30° C. for 10 minutes. […] Forty microliters (40 μl) of the liquid filtrate (hereinafter, the liquid filtrate derived from the reaction solution containing component A, component B, component C and 20 μl of supernatant fraction recovered in Example 49(2) is referred to as “(XII) metabolism solution (A16);” further, the liquid filtrate derived from the reaction solution containing no component A, no component B, no component C and no supernatant fraction recovered in Example 49(2) is referred to as “(XII) control solution (A16)”) were analyzed on a HPLC under the above analysis condition 1. Compared to the concentration of compound (XII) detected from (XII) control solution (A16), the concentration of compound (XII) detected from (XII) metabolism solution (A16) was lower. […]

Barnyardgrass = experiment: Herbicidal activity test, soil surface treatment; type: in vivo, Echinochloa crus-galli; set-up: key: 0: situations in which the condition of sprouting or vegetation at the time of examination of the plant utilized for the test was compared with and showed totally or substantially no difference with that of the untreated application; 10: situations in which the plant completely withered or the sprouting or vegetation was completely suppressed; details: 500 g/ha, sprayed onto the surface of the soil after seeding, investigated after 19 days in a greenhouse
Protocol: Soil was packed into a round plastic pot having a diameter of 10 cm and depth of 10 cm. Barnyardgrass, Blackgrass, Ivyleaf morningglory were seeded. Five (5) parts of the test compound, 6 parts of sorpol3005X (Toho Chemical Company) and 89 parts of xylene were well mixed to produce an emulsion. A certain amount thereof was diluted with water containing 0.1% (v/v) of a sticking agent at a proportion of 1000 L for 1 hectare and was spread uniformly with a spray-gun onto the surface of the soil. After cultivating the plants for 19 days in a greenhouse, the herbicidal activity was investigated.
In the above Tables 3 and 4, the strength of the herbicidal activity is shown stepwise as 0, 1, 2, 3, 4, 5, 6, 7, 8, 9, and 10.

[2] = system: leaf pieces derived from the tobacco to which the present invention DNA (A2) was introduced; experiment: Herbicidal damage of tobacco leaf pieces on MS agar medium containing compound (II); type: cell-based; details: MS agar medium containing 0.1 mg/L of compound (II), in the light at room temperature, 7th day of culturing
Text: Leaf pieces of sterily cultured tobacco were infected with each of the agrobacterium strain bearing pBI-NdG6-rSt-923 and the agrobacterium strain bearing pBI-NdG6-rSt12-923. Tobaccos in which the present invention DNA (A2) has been introduced were obtained under the procedures similar to the methods described in Example 19.
Three (3) leaves were taken from the obtained transgenic tobacco. Each leaf was divided into 4 pieces in which each piece was 5 to 7 mm wide. Each of the leaf pieces were planted onto MS agar medium containing 0.1 mg/L of compound (II) and cultured in the light at room temperature. On the 7th day of culturing, the herbicidal damage of each of the leaf pieces was observed.

[3] = system: present invention protein (A16); experiment: Detection of the ability to convert compound (II) to compound (III), E. coli pKSN452F extract; type: in vitro ADME, Streptomyces ornatus IFO 13069t; details: 3 ppm of compound (II) labeled with 14C, components A, B, 10 minutes at 30° C.
Protocol: Reaction solutions of 30 μl were prepared and maintained for 10 minutes at 30° C. The reaction solutions consisted of a 0.1M potassium phosphate buffer (pH7.0) containing 3 ppm of compound (II) labeled with ^14C, 2 mM of β-NADPH (hereinafter, referred to as “component A”) (Oriental Yeast Company), 2 mg/ml of a ferredoxin derived from spinach (hereinafter referred to as “component B”) (Sigma Company), 0.1 U/ml of ferredoxin reductase (hereinafter, referred to as “component C”) (Sigma Company) and 23 μl of the supernatant fraction recovered in Example 32(2). Similarly to Example 4(3), the reaction solutions after the maintenance were extracted with ethyl acetate and the extracted layers were TLC analyzed. […] A spot corresponding to compound (III) was detected from the reaction solution containing E. coli pKSN849AF extract. In contrast, such a spot was not detected from the reaction solution containing E. coli pKSN2 extract.
Similarly to Example 32(3), reaction solutions of 30 μl were prepared and maintained for 10 minutes at 30° C. […] The reaction solutions after the maintenance were extracted with ethyl acetate and the extracted layers were TLC analyzed. […] A spot corresponding to compound (III) was detected from the reaction solution containing E. coli pKSN452F extract. In contrast, such a spot was not detected from the reaction solution containing E. coli pKSN2 extract.

SMILES | concentration of the compound detected from metabolism solution (A16) compared to control solution (A16) [1] | Herbicidal Activity Barnyardgrass (Barnyardgrass) | herbicidal damage of the leaf pieces [2] | spot corresponding to compound (III) labeled with 14C (TLC) [3]
Cn1c(C(F)(F)F)cc(=O)n(-c2cc(Oc3cccnc3OCC(=O)O)c(Cl)cc2F)c1=O [compound (XII)] | lower |  |  | 
C[C@@H](Oc1cc(-n2c(=O)cc(C(F)(F)F)n(C)c2=O)c(F)cc1Cl)C(=O)O [compound (II)] |  | 10 | grew continuously | detected
